Test results from BindingDB's records for doi:10.1016/j.ejmech.2018.06.052 (Cnrs/University of Strasbourg, 2018).

Assay: Induction of PHB2-mediated melanogenesis in mouse Melan-a cells assessed as pigmentation after 72 hrs

- EC50: 2500 nM
SMILES: NCCOCCOCCNc1nc(NCc2cccc(F)c2)nc(Oc2c(F)c(F)c(F)c(F)c2F)n1
